# Data reported in PubChem BioAssay AID1963983 (Molecular Pharmacology Branch, DTP, NCI, 2024).
# Where “and” joins values, the source holds several entries; their conditions need not be identical. Equal values may be shown once.
# Test system: 186277-243-T-J2-PDC multi-cell spheroid viability
# Experiment: Anticancer human tumor 186277-243-T-J2-PDC patient-derived colon adenocarcinoma cell line growth inhibition [PI3K]
# Conditions: for viability, T/C: stronger effect = lower value
# Summary of the method: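 Targeted small molecules plus PI3K inhibitors, half-log dose series from Cmax (default top 10 microM), were applied to heterotypic spheroids of cancer cells with HUVEC and MSCs. Viability indicated growth inhibition.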
# [1] = curve of first compound, second compound 0.00316 µM
# [2] = curve of first compound, second compound 0.01 µM
# [3] = curve of first compound, second compound 0.0316 µM
# [4] = curve of first compound, second compound 0.1 µM
# [5] = curve of first compound, second compound 0.316 µM
# [6] = curve of first compound, second compound 1 µM
# [7] = second compound 0.00316 µM, first compound 0.0316 µM
# [8] = second compound 0.00316 µM, first compound 0.1 µM
# [9] = second compound 0.00316 µM, first compound 0.316 µM
# [10] = second compound 0.00316 µM, first compound 1 µM
# [11] = second compound 0.00316 µM, first compound 3.16 µM
# [12] = second compound 0.00316 µM, first compound 10 µM
# [13] = second compound 0.01 µM, first compound 0.0316 µM
# [14] = second compound 0.01 µM, first compound 0.1 µM
# [15] = second compound 0.01 µM, first compound 0.316 µM
# [16] = second compound 0.01 µM, first compound 1 µM
# [17] = second compound 0.01 µM, first compound 3.16 µM
# [18] = second compound 0.01 µM, first compound 10 µM
# [19] = second compound 0.0316 µM, first compound 0.0316 µM
# [20] = second compound 0.0316 µM, first compound 0.1 µM
# [21] = second compound 0.0316 µM, first compound 0.316 µM
# [22] = second compound 0.0316 µM, first compound 1 µM
# [23] = second compound 0.0316 µM, first compound 3.16 µM
# [24] = second compound 0.0316 µM, first compound 10 µM
# [25] = second compound 0.1 µM, first compound 0.0316 µM
# [26] = second compound 0.1 µM, first compound 0.1 µM
# [27] = second compound 0.1 µM, first compound 0.316 µM
# [28] = second compound 0.1 µM, first compound 1 µM
# [29] = second compound 0.1 µM, first compound 3.16 µM
# [30] = second compound 0.1 µM, first compound 10 µM
# [31] = second compound 0.316 µM, first compound 0.0316 µM
# [32] = second compound 0.316 µM, first compound 0.1 µM
# [33] = second compound 0.316 µM, first compound 0.316 µM
# [34] = second compound 0.316 µM, first compound 1 µM
# [35] = second compound 0.316 µM, first compound 3.16 µM
# [36] = second compound 0.316 µM, first compound 10 µM
# [37] = second compound 1 µM, first compound 0.0316 µM
# [38] = second compound 1 µM, first compound 0.1 µM
# [39] = second compound 1 µM, first compound 0.316 µM
# [40] = second compound 1 µM, first compound 1 µM
# [41] = second compound 1 µM, first compound 3.16 µM
# [42] = second compound 1 µM, first compound 10 µM
# 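Note: spheroids exposed to compounds for seven days before viability reading.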
# 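Throughout, for viability, T/C: 100% = DMSO vehicle control viability.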
compound,measurement,setting,value
CC1(C)CCC(CN2CCN(c3ccc(C(=O)NS(=O)(=O)c4ccc(NCC5CCOCC5)c([N+](=O)[O-])c4)c(Oc4cnc5[nH]ccc5c4)c3)CC2)=C(c2ccc(Cl)cc2)C1 + COc1c(OCCCN2CCOCC2)ccc2c3n(c(=NC(=O)c4cnc(N)nc4)nc12)CCN3,IC50,[1],> 10000 nM
same,IC50,[2],> 10000 nM
same,IC50,[3],> 10000 nM
same,IC50,[4],< 31.6 nM
same,IC50,[5],< 31.6 nM
same,IC50,[6],< 31.6 nM
same,"viability, T/C",[7],110%
same,"viability, T/C",[8],96.2%
same,"viability, T/C",[9],110%
same,"viability, T/C",[10],108%
same,"viability, T/C",[11],93%
same,"viability, T/C",[12],115%
same,"viability, T/C",[13],99.1%
same,"viability, T/C",[14],105%
same,"viability, T/C",[15],96.5%
same,"viability, T/C",[16],109%
same,"viability, T/C",[17],82.6%
same,"viability, T/C",[18],94%
same,"viability, T/C",[19],80.8%
same,"viability, T/C",[20],89.3%
same,"viability, T/C",[21],80.5%
same,"viability, T/C",[22],78.5%
same,"viability, T/C",[23],76.1%
same,"viability, T/C",[24],71.2%
same,"viability, T/C",[25],26.6%
same,"viability, T/C",[26],20.3%
same,"viability, T/C",[27],21.3%
same,"viability, T/C",[28],21.3%
same,"viability, T/C",[29],23.9%
same,"viability, T/C",[30],16.9%
same,"viability, T/C",[31],5.48%
same,"viability, T/C",[32],11.5%
same,"viability, T/C",[33],4.51%
same,"viability, T/C",[34],6.03%
same,"viability, T/C",[35],6.17%
same,"viability, T/C",[36],4.39%
same,"viability, T/C",[37],2.94%
same,"viability, T/C",[38],4.42%
same,"viability, T/C",[39],3.06%
same,"viability, T/C",[40],2.7%
same,"viability, T/C",[41],5.01%
same,"viability, T/C",[42],2.15%
Cn1ncnc1[C@H]1c2n[nH]c(=O)c3cc(F)cc(c23)N[C@@H]1c1ccc(F)cc1 + COc1c(OCCCN2CCOCC2)ccc2c3n(c(=NC(=O)c4cnc(N)nc4)nc12)CCN3,IC50,[1],> 100 nM
same,IC50,[2],> 100 nM
same,IC50,[3],21.4 nM
same,IC50,[4],< 0.316 nM
same,IC50,[5],< 0.316 nM
same,IC50,[6],< 0.316 nM
same,"viability, T/C","second compound 0.00316 µM, first compound 0.000316 µM",102%
same,"viability, T/C","second compound 0.00316 µM, first compound 0.001 µM",100%
same,"viability, T/C","second compound 0.00316 µM, first compound 0.00316 µM",105%
same,"viability, T/C","second compound 0.00316 µM, first compound 0.01 µM",80.9%
same,"viability, T/C",[7],88%
same,"viability, T/C",[8],79.5%
same,"viability, T/C","second compound 0.01 µM, first compound 0.000316 µM",93.8%
same,"viability, T/C","second compound 0.01 µM, first compound 0.001 µM",96%
same,"viability, T/C","second compound 0.01 µM, first compound 0.00316 µM",83.6%
same,"viability, T/C","second compound 0.01 µM, first compound 0.01 µM",98.3%
same,"viability, T/C",[13],85.5%
same,"viability, T/C",[14],68.7%
same,"viability, T/C","second compound 0.0316 µM, first compound 0.000316 µM",66%
same,"viability, T/C","second compound 0.0316 µM, first compound 0.001 µM",63.8%
same,"viability, T/C","second compound 0.0316 µM, first compound 0.00316 µM",58.9%
same,"viability, T/C","second compound 0.0316 µM, first compound 0.01 µM",54.6%
same,"viability, T/C",[19],47.2%
same,"viability, T/C",[20],40.8%
same,"viability, T/C","second compound 0.1 µM, first compound 0.000316 µM",22.2%
same,"viability, T/C","second compound 0.1 µM, first compound 0.001 µM",15.9%
same,"viability, T/C","second compound 0.1 µM, first compound 0.00316 µM",16.7%
same,"viability, T/C","second compound 0.1 µM, first compound 0.01 µM",13%
same,"viability, T/C",[25],14.1%
same,"viability, T/C",[26],9.78%
same,"viability, T/C","second compound 0.316 µM, first compound 0.000316 µM",4.1%
same,"viability, T/C","second compound 0.316 µM, first compound 0.001 µM",7.07%
same,"viability, T/C","second compound 0.316 µM, first compound 0.00316 µM",5.01%
same,"viability, T/C","second compound 0.316 µM, first compound 0.01 µM",6.2%
same,"viability, T/C",[31],4.54%
same,"viability, T/C",[32],4.17%
same,"viability, T/C","second compound 1 µM, first compound 0.000316 µM",3.72%
same,"viability, T/C","second compound 1 µM, first compound 0.001 µM",4.99%
same,"viability, T/C","second compound 1 µM, first compound 0.00316 µM",1.76%
same,"viability, T/C","second compound 1 µM, first compound 0.01 µM",1.73%
same,"viability, T/C",[37],3.49%
same,"viability, T/C",[38],2.04%
CC(=O)c1c(C)c2cnc(Nc3ccc(N4CCNCC4)cn3)nc2n(C2CCCC2)c1=O,"viability, T/C",compound 0.000316 µM,97.1% [middle of 4 runs]
same,"viability, T/C",compound 0.001 µM,91.1% [middle of 4 runs]
same,"viability, T/C",compound 0.00316 µM,91.5% and 103% and 102% (2×)
same,"viability, T/C",compound 0.01 µM,105% [middle of 4 runs]
same,IC50,curve of compound,> 100 nM
CC1(C)CCC(Nc2ncc(C(F)(F)F)c(-c3c[nH]c4c(P(C)(C)=O)c(C#N)ccc34)n2)CN1 (stereo not drawn) + CC(Nc1ncnc2nc[nH]c12)c1cc2cccc(Cl)c2c(=O)n1-c1ccccc1,IC50,[3],4130 nM
same,IC50,[4],4350 nM
same,IC50,[5],4090 nM
same,IC50,[6],3950 nM
same,IC50,"curve of first compound, second compound 3.16 µM",4000 nM
same,IC50,"curve of first compound, second compound 10 µM",865 nM
same,"viability, T/C",[19],77.7%
same,"viability, T/C",[20],61.8%
same,"viability, T/C",[21],58%
same,"viability, T/C",[22],59.9%
same,"viability, T/C",[23],66.5%
same,"viability, T/C",[24],1.23%
same,"viability, T/C",[25],92.4%
same,"viability, T/C",[26],57.1%
same,"viability, T/C",[27],62%
same,"viability, T/C",[28],64.4%
same,"viability, T/C",[29],68.6%
same,"viability, T/C",[30],1.55%
same,"viability, T/C",[31],81.3%
same,"viability, T/C",[32],57.7%
same,"viability, T/C",[33],58.3%
same,"viability, T/C",[34],64.1%
same,"viability, T/C",[35],64.2%
same,"viability, T/C",[36],0.31%
same,"viability, T/C",[37],75.4%
same,"viability, T/C",[38],61%
same,"viability, T/C",[39],60.8%
same,"viability, T/C",[40],63%
same,"viability, T/C",[41],61.9%
same,"viability, T/C",[42],0.97%
same,"viability, T/C","second compound 3.16 µM, first compound 0.0316 µM",80.1%
same,"viability, T/C","second compound 3.16 µM, first compound 0.1 µM",69.1%
same,"viability, T/C","second compound 3.16 µM, first compound 0.316 µM",63.4%
same,"viability, T/C","second compound 3.16 µM, first compound 1 µM",67.2%
same,"viability, T/C","second compound 3.16 µM, first compound 3.16 µM",63%
same,"viability, T/C","second compound 3.16 µM, first compound 10 µM",0.64%
same,"viability, T/C","second compound 10 µM, first compound 0.0316 µM",72%
same,"viability, T/C","second compound 10 µM, first compound 0.1 µM",59.5%
same,"viability, T/C","second compound 10 µM, first compound 0.316 µM",55.1%
same,"viability, T/C","second compound 10 µM, first compound 1 µM",53.8%
same,"viability, T/C","second compound 10 µM, first compound 3.16 µM",30.2%
same,"viability, T/C","second compound 10 µM, first compound 10 µM",1.26%
Cn1ncc(Cl)c1-c1cc(C(=O)NC(CN)Cc2cccc(F)c2)sc1Cl (stereo not drawn) + COc1c(OCCCN2CCOCC2)ccc2c3n(c(=NC(=O)c4cnc(N)nc4)nc12)CCN3,IC50,[1],224 nM
same,IC50,[2],225 nM
same,IC50,[3],46.8 nM
same,IC50,[4],< 31.6 nM
same,IC50,[5],< 31.6 nM
same,IC50,[6],< 31.6 nM
same,"viability, T/C",[7],93%
same,"viability, T/C",[8],63.4%
same,"viability, T/C",[9],42.9%
same,"viability, T/C",[10],30.4%
same,"viability, T/C",[11],20.4%
same,"viability, T/C",[12],9.36%
same,"viability, T/C",[13],86.4%
same,"viability, T/C",[14],71.8%
same,"viability, T/C",[15],38.2%
same,"viability, T/C",[16],23.1%
same,"viability, T/C",[17],14.4%
same,"viability, T/C",[18],4.57%
same,"viability, T/C",[19],58.3%
same,"viability, T/C",[20],33.6%
same,"viability, T/C",[21],23.5%
same,"viability, T/C",[22],13.7%
same,"viability, T/C",[23],10.4%
same,"viability, T/C",[24],2.08%
same,"viability, T/C",[25],21.1%
same,"viability, T/C",[26],13.3%
same,"viability, T/C",[27],8.18%
same,"viability, T/C",[28],6.79%
same,"viability, T/C",[29],6.13%
same,"viability, T/C",[30],1.39%
same,"viability, T/C",[31],4.19%
same,"viability, T/C",[32],4.53%
same,"viability, T/C",[33],2.93%
same,"viability, T/C",[34],5.08%
same,"viability, T/C",[35],3.95%
same,"viability, T/C",[36],0.44%
same,"viability, T/C",[37],2.43%
same,"viability, T/C",[38],1.6%
same,"viability, T/C",[39],2.02%
same,"viability, T/C",[40],1.95%
same,"viability, T/C",[41],1.4%
same,"viability, T/C",[42],0.21%
